How the values were obtained:
Assay type in all cases: toxicity, cell-based
U2OS = assay: Incucyte cell viability with U2OS; conditions: human, 24 h, 10 µM, compound concentration 10 uM
Fibroblast = assay: Incucyte cell viability with human fibroblast; conditions: 24 h, 10 µM, compound concentration 10 uM
HEK-293T = assay: Incucyte cell viability with HEK293T; conditions: human, 24 h, 10 µM, compound concentration 10 uM
Further: unitless GR value; below 1 slowed growth and below 0 cell loss.

NC(=O)c1ccc(Oc2ccc(C(N)=O)cc2)cc1
Growth Rate (U2OS; replicate number 1): 1 | Growth Rate (Fibroblast; replicate number 1): 1 | Growth Rate (HEK-293T; replicate number 1): 1

O=C(CCl)Nc1ccc(S(=O)(=O)c2ccc(NC(=O)CCl)cc2)cc1
Growth Rate (U2OS; replicate number 1): -0.42 | Growth Rate (U2OS; replicate number 2): 0.05 | Growth Rate (Fibroblast; replicate number 1): -0.61 | Growth Rate (Fibroblast; replicate number 2): -0.63 | Growth Rate (HEK-293T; replicate number 1): -0.4 | Growth Rate (HEK-293T; replicate number 2): -0.18

COc1cc2c(NC3CCN(CC4CCCCC4)CC3)nc(N3CCCN(C(C)C)CC3)nc2cc1OCCCN1CCCCC1
Growth Rate (U2OS; replicate number 1): -0.52 | Growth Rate (U2OS; replicate number 2): -0.15 | Growth Rate (Fibroblast; replicate number 1): -0.44 | Growth Rate (Fibroblast; replicate number 2): -0.13 | Growth Rate (HEK-293T; replicate number 1): -0.58 | Growth Rate (HEK-293T; replicate number 2): -0.42

NC(=O)[C@H]1CCCCc2c1[nH]c1ccc(Cl)cc21
Growth Rate (U2OS; replicate number 1): 0.17 | Growth Rate (U2OS; replicate number 2): 1 | Growth Rate (Fibroblast; replicate number 1): 1 | Growth Rate (HEK-293T; replicate number 1): 0.84 | Growth Rate (HEK-293T; replicate number 2): 1

O=C(NCC(=O)N1CCCCC1)Nc1ccc2nnsc2c1
Growth Rate (U2OS; replicate number 1): 0.93 | Growth Rate (Fibroblast; replicate number 1): 0.36 | Growth Rate (Fibroblast; replicate number 2): -0.42 | Growth Rate (HEK-293T; replicate number 1): 0.75 | Growth Rate (HEK-293T; replicate number 2): 0.97

COC(=O)C[C@@H]1N=C(c2ccc(Cl)cc2)c2c(sc(C)c2C)-n2c(C)nnc21
Growth Rate (U2OS; replicate number 1): 1 | Growth Rate (Fibroblast; replicate number 1): 1 | Growth Rate (Fibroblast; replicate number 2): 0.73 | Growth Rate (HEK-293T; replicate number 1): 0.62 | Growth Rate (HEK-293T; replicate number 2): 0.77

COc1ccc2nc3[nH]nc(C)c3c(NCCOCCO)c2c1
Growth Rate (U2OS; replicate number 1): 0.89 | Growth Rate (U2OS; replicate number 2): 1 | Growth Rate (Fibroblast; replicate number 1): 0.52 | Growth Rate (Fibroblast; replicate number 2): 0.43 | Growth Rate (HEK-293T; replicate number 1): 0.57 | Growth Rate (HEK-293T; replicate number 2): 0.77

Cc1cc(C)c(CNC(=O)c2cc(-c3ccc(N4CCN(C)CC4)nc3)cc3c2c(C)cn3C(C)C)c(=O)[nH]1
Growth Rate (U2OS; replicate number 1): 0.61 | Growth Rate (U2OS; replicate number 2): 0.86 | Growth Rate (Fibroblast; replicate number 1): 1 | Growth Rate (HEK-293T; replicate number 1): 0.42 | Growth Rate (HEK-293T; replicate number 2): 0.79

COc1ccc(/C=C/C(=O)NO)c(-c2ccc(-c3ccccc3)cc2)c1
Growth Rate (U2OS; replicate number 1): -0.07 | Growth Rate (U2OS; replicate number 2): 1 | Growth Rate (Fibroblast; replicate number 1): -0.1 | Growth Rate (Fibroblast; replicate number 2): -0.52 | Growth Rate (HEK-293T; replicate number 1): 0.41 | Growth Rate (HEK-293T; replicate number 2): 0.49

CC1(C)c2cccc(C(=O)NO)c2CN1c1cnc(C(F)(F)F)cn1
Growth Rate (U2OS; replicate number 1): 0.15 | Growth Rate (U2OS; replicate number 2): 1 | Growth Rate (Fibroblast; replicate number 1): 1 | Growth Rate (Fibroblast; replicate number 2): -0.04 | Growth Rate (HEK-293T; replicate number 1): 0.61 | Growth Rate (HEK-293T; replicate number 2): 0.71

Cc1cc(/N=N/c2ccc3c(c2)CCC(=O)N3)c(N)cc1O
Growth Rate (U2OS; replicate number 1): 0.36 | Growth Rate (U2OS; replicate number 2): 1 | Growth Rate (Fibroblast; replicate number 1): 1 | Growth Rate (HEK-293T; replicate number 1): 0.63 | Growth Rate (HEK-293T; replicate number 2): 0.88

CC(=O)Nc1ccc(C(=O)Nc2ccc(F)cc2N)cc1
Growth Rate (U2OS; replicate number 1): 1 | Growth Rate (Fibroblast; replicate number 1): 1 | Growth Rate (HEK-293T; replicate number 1): 0.67 | Growth Rate (HEK-293T; replicate number 2): 1

CCCOc1cc(OCCCCN(C)C)cc(Oc2cc3c(cc2NS(=O)(=O)c2ccc(OC)c(OC)c2)n(C)c(=O)n3C)c1.O=C(O)C(F)(F)F
Growth Rate (U2OS; replicate number 1): 0.87 | Growth Rate (U2OS; replicate number 2): 1 | Growth Rate (Fibroblast; replicate number 1): 1 | Growth Rate (HEK-293T; replicate number 1): 0.59 | Growth Rate (HEK-293T; replicate number 2): 0.72

O=C([O-])CCNc1cc(N2CCc3ccccc3CC2)nc(-c2cccnc2)n1.[Na+]
Growth Rate (U2OS; replicate number 1): 0.55 | Growth Rate (U2OS; replicate number 2): 1 | Growth Rate (Fibroblast; replicate number 1): 1 | Growth Rate (HEK-293T; replicate number 1): 0.83 | Growth Rate (HEK-293T; replicate number 2): 0.92

Cl.Cl.Nc1ncnc2c1ncn2[C@@H]1O[C@H](C(=O)N2CCN(CC(=O)Nc3cccc4c3CNC4=O)CC2)[C@@H](O)[C@H]1O
Growth Rate (U2OS; replicate number 1): 1 | Growth Rate (U2OS; replicate number 2): 0.84 | Growth Rate (Fibroblast; replicate number 1): 1 | Growth Rate (HEK-293T; replicate number 1): 0.67 | Growth Rate (HEK-293T; replicate number 2): 1

CCN(CCN(C)C)C(=O)CNCc1cc(C(N)=O)ccn1.Cl.O
Growth Rate (U2OS; replicate number 1): 0.89 | Growth Rate (U2OS; replicate number 2): 0.8 | Growth Rate (Fibroblast; replicate number 1): 0.65 | Growth Rate (Fibroblast; replicate number 2): 0.4 | Growth Rate (HEK-293T; replicate number 1): 0.74 | Growth Rate (HEK-293T; replicate number 2): 0.94

COc1cc2c(NC3CCN(C)CC3)nc(N3CCCN(C)CC3)nc2cc1OCCCN(C)C
Growth Rate (U2OS; replicate number 1): 0.63 | Growth Rate (U2OS; replicate number 2): 1 | Growth Rate (Fibroblast; replicate number 1): 1 | Growth Rate (HEK-293T; replicate number 1): 0.78 | Growth Rate (HEK-293T; replicate number 2): 1
